We go through seven compounds from publication PMC11599599, “Synthesis, characterization, molecular docking, pharmacokinetics, and molecular dynamics of new bis-thiazoles based on bis-thiosemicarbazone as anti-coxsackievirus” (Scientific Reports, 2024).

What is called inhibition is how much of the control response was suppressed. By melting point is commonly meant the temperature, or range, at which the solid turns liquid.

Data set [1] concerns Vero cells. Kind of data set: Cytotoxicity assay on Vero cells (microscopic morphology). Format: cell-based. The arrangement: key to Cytotoxicity on Vero cells (cell sheet affected): -: Safe concentration; + 1, +2, + 3, +4: about 25, 50, 75, 100% of cell sheet was affected respectively; + 1, +2, + 3, +4: about 25, 50, 75, 100% of cell sheet was affected respectively; + 1, +2, + 3, +4: about 25, 50, 75, 100% of cell sheet was affected respectively; + 1, +2, + 3, +4: about 25, 50, 75, 100% of cell sheet was affected respectively; M: masked (color of compounds made cells unseen). To be noted: for Cytotoxicity on Vero cells (cell sheet affected): 24 h, morphological changes; for Safety effect on Vero cells (in words): Table 1, 24 h. Here is the method:
(§1) Compounds: 10 mg were dissolved in 1 mL (10% DMSO and 90% deionized water), sterilized by 1% antibiotic–antimycotic mixture and stored in −20.
(§2) Cells: Vero cell line was used. The cells were propagated in DMEM medium (Lonza, USA) supplemented with 10% fetal bovine serum (Gibco, USA), 1% antibiotic–antimycotic mixture (Lonza, USA).
Cytotoxic effect of compounds was measured by inoculation different doses of compounds on tested cells then examining them microscopically after 24 h to determine any morphological changes that appeared on cells as a result of being subjected to the compounds[46]. Vero cells were seeded onto 96-well plates, which were then incubated for the whole night. After a 24-hour incubation period at 37 °C in a humidified incubator with 5% CO2, compounds were injected at concentrations of 10, 20, 30, 40, 50, 60, 70, 80, 90, and 100 µg /100 µl. Any morphological changes were monitored under a microscope.

Data set [2] concerns Cox B virus. Kind of data set: Plaque reduction assay against Cox B virus. It counts as cell-based. The settings on record: for inhibition at 20 µg/mL / inhibition at 40 µg/mL: Vero. As for the experimental part:
as §1, §2
Virus: Cox B virus was propagated and titrated to give final count of 0.9 × 10^5 viral particle/mL.
This test was done according to Tebas et al.[47], In a 12-well plate Vero cells (10^5 cells/mL) were cultivated for 1 day at 37 °C. The Cox B virus was mixed with the safe concentration of the compound and incubated for 1 h at 37 °C before being added to the cells. Following the removal of the growth media, the cells were injected with virus-extract combinations ([…]) and then rinsed with PBS (Phosphate Buffer Saline). Following a one-hour contact period for virus adsorption, the cell monolayer was supplemented with one milliliter of Dulbecco’s Modified Eagles Media (DMEM) containing 2% agarose. The plates were then allowed to solidify and incubated at 37 °C until the development of viral plaques. Formalin (10%) was added for 2 h then plates were stained with crystal violet. Control wells were included where untreated virus was incubated with Vero cells and finally plaques were counted and percentage reduction in plaques formation in comparison to control wells was recorded as following:
% inhibition = (viral count(untreated) - viral count(treated))/viral count(untreated)X100.

On to `COc1ccc(OC)c(C=C2/C(=N/Nc3nc(C)cs3)c3ccccc3/C2=N\Nc2nc(C)cs2)c1` [11c, 2,2’-(((1E,3E)−2-(2,5-dimethoxybenzylidene)−1H-indene-1,3(2H)-diylidene)bis(hydrazin-1-yl-2-ylidene))bis(4-methylthiazole)], for which the “Cytotoxicity on Vero cells (cell sheet affected)” value (“Cytotoxicity on Vero cells” for short) in data set [1] (10 µg/100µl), in data set [1] (20 µg/100µl), in data set [1] (30 µg/100µl), in data set [1] (40 µg/100µl), in data set [1] (50 µg/100µl) and in data set [1] (60 µg/100µl) was “-” in each case. For the same compound, the “Cytotoxicity on Vero cells” value in data set [1] (70 µg/100µl) is reported as “-”; in data set [1] (80 µg/100µl), “-”; in data set [1] (90 µg/100µl), “M”; in data set [1] (100 µg/100µl), “M”. In addition, the “Safety effect on Vero cells (in words)” value in data set [1] was “dense and coloured that made masking to the cell sheet”. Moreover, the “Viral count (treated)” value was 0.84 × 10^7 in data set [2] (20 ug/mL) and 0.57 × 10^7 in data set [2] (40 ug/mL). In addition, in data set [2], the inhibition at 20 µg/mL stood at 47%. For the same compound, the inhibition at 40 µg/mL in data set [2] was 64%.
`COc1ccc(OC)c(C=C2/C(=N/Nc3nc(C)c(/N=N/c4ccc(C)cc4)s3)c3ccccc3/C2=N\Nc2nc(C)c(/N=N/c3ccc(C)cc3)s2)c1` [7b, 2,2’-(((1E,3E)−2-(2,5-dimethoxybenzylidene)−1H-indene-1,3(2H)-diylidene)bis(hydrazin-1-yl-2-ylidene))bis(4-methyl-5-((E)-p-tolyldiazenyl)thiazole)] returned a melting point of 132 to 135 °C. Further, the “Cytotoxicity on Vero cells” value in data set [1] (10 µg/100µl) is reported as “-”. In data set [1] (20 µg/100µl), the “Cytotoxicity on Vero cells” value is “-”. The “Cytotoxicity on Vero cells” value in data set [1] (30 µg/100µl) is reported as “-”. Moreover, in data set [1] (40 µg/100µl), the “Cytotoxicity on Vero cells” value is “-”. Further, the “Cytotoxicity on Vero cells” value in data set [1] (50 µg/100µl) was “-”. Besides, the “Cytotoxicity on Vero cells” value in data set [1] (60 µg/100µl) is “M”. Further, in data set [1] (70 µg/100µl), the “Cytotoxicity on Vero cells” value is on record as “M”. For the same compound, the “Cytotoxicity on Vero cells” value in data set [1] (80 µg/100µl) was “M”. Moreover, the “Cytotoxicity on Vero cells” value in data set [1] (90 µg/100µl) is “M”. For the same compound, the “Cytotoxicity on Vero cells” value in data set [1] (100 µg/100µl) is reported as “M”. The “Safety effect on Vero cells (in words)” value in data set [1] was “dense and coloured that made masking to the cell sheet”. In addition, in data set [2] (20 ug/mL), the “Viral count (treated)” value was 1.6 × 10^7. Moreover, the “Viral count (treated)” value in data set [2] (40 ug/mL) is 1.07 × 10^7. In data set [2], the inhibition at 20 µg/mL was found to be 0% and the inhibition at 40 µg/mL came out at 33%.
On to `COc1ccc(OC)c(C=C2/C(=N/NC3=NC(=O)C(C)S3)c3ccccc3/C2=N\NC2=NC(=O)C(C)S2)c1` (centres unmarked) [9b, 2,2’-(((1E,3E)−2-(2,5-dimethoxybenzylidene)−1H-indene-1,3(2H)-diylidene)bis(hydrazin-1-yl-2-ylidene))bis(5-methylthiazol-4(5H)-one)], for which the melting point lay within 198 to 200 °C. Besides, the “Cytotoxicity on Vero cells” value in data set [1] (10 µg/100µl) was “-”. In data set [1] (20 µg/100µl), the “Cytotoxicity on Vero cells” value is “-”. The “Cytotoxicity on Vero cells” value in data set [1] (30 µg/100µl) is “-”. For the same compound, the “Cytotoxicity on Vero cells” value in data set [1] (40 µg/100µl) is “-”. For the same compound, the “Cytotoxicity on Vero cells” value in data set [1] (50 µg/100µl) is on record as “-”. Besides, the “Cytotoxicity on Vero cells” value in data set [1] (60 µg/100µl) is recorded as “-”. Moreover, the “Safety effect on Vero cells (in words)” value in data set [1] is “highly toxic at low concentration”.
For `COc1ccc(OC)c(C=C2C(=O)c3ccccc3C2=O)c1` [compound 1, 2-(2,5-dimethoxy-benzylidene)indan-1,3-dione], the “Cytotoxicity on Vero cells” value in data set [1] (10 µg/100µl), in data set [1] (20 µg/100µl), in data set [1] (30 µg/100µl), in data set [1] (40 µg/100µl), in data set [1] (50 µg/100µl) and in data set [1] (60 µg/100µl) was “-” throughout. In addition, the “Cytotoxicity on Vero cells” value in data set [1] (70 µg/100µl), in data set [1] (80 µg/100µl), in data set [1] (90 µg/100µl) and in data set [1] (100 µg/100µl) was “-” each time. The “Safety effect on Vero cells (in words)” value in data set [1] was “higher safety”. In addition, the “Viral count (treated)” value in data set [2] (20 ug/mL) is 1.42 × 10^7; in data set [2] (40 ug/mL), 1.6 × 10^7. In addition, the inhibition at 20 µg/mL in data set [2] came out at 11%. For the same compound, in data set [2], the inhibition at 40 µg/mL is 0%.
In the case of `COc1ccc(OC)c(C=C2/C(=N/Nc3nc(C)c(/N=N/c4ccc(Cl)cc4)s3)c3ccccc3/C2=N\Nc2nc(C)c(/N=N/c3ccc(Cl)cc3)s2)c1` [7c, 2,2’-(((1E,3E)−2-(2,5-dimethoxybenzylidene)−1H-indene-1,3(2H)-diylidene)bis(hydrazin-1-yl-2-ylidene))bis(5-((E)-(4-chlorophenyl)diazenyl)−4-methylthiazole)], the “Cytotoxicity on Vero cells” value in data set [1] (10 µg/100µl), in data set [1] (20 µg/100µl), in data set [1] (30 µg/100µl), in data set [1] (40 µg/100µl), in data set [1] (50 µg/100µl) and in data set [1] (60 µg/100µl) was “-” each time. The “Cytotoxicity on Vero cells” value is on record as “-” in data set [1] (70 µg/100µl), “-” in data set [1] (80 µg/100µl), “M” in data set [1] (90 µg/100µl) and “M” in data set [1] (100 µg/100µl). Besides, the “Safety effect on Vero cells (in words)” value in data set [1] was “dense and coloured that made masking to the cell sheet”. For the same compound, the “Viral count (treated)” value in data set [2] (20 ug/mL) is 1.07 × 10^7; in data set [2] (40 ug/mL), 1.6 × 10^7. Also, the inhibition at 20 µg/mL in data set [2] is 33%. Also, the inhibition at 40 µg/mL in data set [2] stood at 0%.
On to `COc1ccc(OC)c(C=C2/C(=N/Nc3nc(C)c(C(C)=O)s3)c3ccccc3/C2=N\Nc2nc(C)c(C(C)=O)s2)c1` [11a, 1,1’-((((1E,3E)−2-(2,5-dimethoxybenzylidene)−1H-indene-1,3(2H)-diylidene)bis(hydrazin-1-yl-2-ylidene))bis(4-methylthiazole-2,5-diyl))bis(ethan-1-one)], for which the “Cytotoxicity on Vero cells” value in data set [1] (10 µg/100µl) is “-”; in data set [1] (20 µg/100µl) it was “-”; in data set [1] (40 µg/100µl) it was “M”; in data set [1] (50 µg/100µl) it was “M”; in data set [1] (60 µg/100µl), “M”; in data set [1] (70 µg/100µl) it was “M”. In addition, the “Cytotoxicity on Vero cells” value in data set [1] (80 µg/100µl), in data set [1] (90 µg/100µl) and in data set [1] (100 µg/100µl) was “M” in each case. Moreover, the “Safety effect on Vero cells (in words)” value in data set [1] was “dense and coloured that made masking to the cell sheet”. Besides, the figures for the “Viral count (treated)” value in data set [2] (20 ug/mL) and in data set [2] (40 ug/mL) were 1.44 × 10^7 and 0.68 × 10^7, respectively. Also, in data set [2], the inhibition at 20 µg/mL stood at 10%. Also, in data set [2], the inhibition at 40 µg/mL came to 57%.
For the compound `CCOC(=O)c1sc(N/N=C2/C(=Cc3cc(OC)ccc3OC)/C(=N/Nc3nc(C)c(C(=O)OCC)s3)c3ccccc32)nc1C` [11b, Diethyl 2,2’-(((1E,3E)−2-(2,5-dimethoxybenzylidene)−1H-indene-1,3(2H)-diylidene)bis-(hydrazin-1-yl-2-ylidene))bis(4-methylthiazole-5-carboxylate)], the “Cytotoxicity on Vero cells” value in data set [1] (10 µg/100µl) is “-”; in data set [1] (20 µg/100µl) it was “-”; in data set [1] (30 µg/100µl), “-”; in data set [1] (40 µg/100µl) it was “-”; in data set [1] (50 µg/100µl) it was “-”; in data set [1] (60 µg/100µl) it was “M”. In addition, the “Cytotoxicity on Vero cells” value in data set [1] (70 µg/100µl), in data set [1] (80 µg/100µl), in data set [1] (90 µg/100µl) and in data set [1] (100 µg/100µl) was “M” each time. Moreover, in data set [1], the “Safety effect on Vero cells (in words)” value is “dense and coloured that made masking to the cell sheet”. In addition, the “Viral count (treated)” value in data set [2] (20 ug/mL) is given as 0.8 × 10^7; in data set [2] (40 ug/mL), 0.96 × 10^7. Further, the inhibition at 20 µg/mL in data set [2] came out at 50%. Moreover, in data set [2], the inhibition at 40 µg/mL is 40%.
